This is an account of results in patent publication US8389511B2, “Bicyclic heterocyclic derivative” (Dainippon Sumitomo Pharma Co., Ltd., priority 2007, dated 2013).

Counter-ions that a name gives are not always drawn.

For the assay, the target named is T1, Recombinant human renin (Homo sapiens, UniProt P00797).
T1 sequence (P00797 67-406): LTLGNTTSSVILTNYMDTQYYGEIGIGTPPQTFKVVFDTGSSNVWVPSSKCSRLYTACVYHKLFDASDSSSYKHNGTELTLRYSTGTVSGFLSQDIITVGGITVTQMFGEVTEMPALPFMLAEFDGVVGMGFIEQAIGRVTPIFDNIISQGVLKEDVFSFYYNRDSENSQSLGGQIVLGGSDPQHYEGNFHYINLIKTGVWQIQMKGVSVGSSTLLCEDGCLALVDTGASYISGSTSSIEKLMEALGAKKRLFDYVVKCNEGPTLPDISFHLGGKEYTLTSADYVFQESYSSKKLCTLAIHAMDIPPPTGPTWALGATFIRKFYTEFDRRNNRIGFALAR
The assay can be described thus: In vitro renin inhibitory activity assay (fluorescence, EDANS/DABCYL peptide substrate). Particulars: recombinant human renin (50 ng), 0.1M HEPES buffer pH 7.4, substrate 4 μM, 37° C., one hour, fluorescence 340/500 nm. The assay is classed as biochemical. As for the experimental part: In Vitro Renin Inhibitory Activity Assay
Recombinant human renin (50 ng) was reacted in 0.1M HEPES buffer (pH 7.4) containing 0.1M NaCl, 1 mM EDTA and 0.1 mg/mL BSA together with a substrate and a test compound at 37° C. for one hour. As the substrate, Arg-Glu(EDANS)-[…]DABCYL)-Arg or DABCYL-γ-Abu-[…]EDANS was added in such an amount so that the final concentration thereof became 4 μM. The elevated fluorescence intensity at the exciting wavelength 340 nm and the fluorescence wavelength 500 nm was measured by a fluorescence plate reader.
Turning to `CCC(=O)NCCN1C(=O)C(C)(C)Oc2cc(F)c(C(=O)N(CC)[C@H]3CNCC[C@@H]3c3cccc(OC)c3)cc21` [Example 265], the IC50 turned out to be 2.2 nM. With `CCC(=O)NCCN1C(=O)C(C)(c2cc(C#N)ccc2F)Oc2cc(C(F)(F)F)c(C(=O)N(C(C)C)C3CCCNC3)cc21` (centres unmarked) [Example 228] the figure was 1.5 nM; with `CCC(=O)NCCn1c(=O)n(CC)c2cc(C(F)(F)F)c(C(=O)N(C(C)C)[C@@H]3CCCNC3)cc21` [Example 262], 30 nM; with `CCn1c(=O)n(CCCCOC)c2cc(C(=O)N(C(C)C)[C@@H]3CCCNC3)c(C(F)(F)F)cc21` [Example 261], 15 nM. Take `COCCCCN1C(=O)C(C)(C)Oc2cc(C(F)(F)F)c(C(=O)N(C(C)C)C3CCNC3)cc21` (centres unmarked) [Example 201, N-Isopropyl-4-(4-methoxybutyl)-2,2-dimethyl-3-oxo-N-pyrrolidine-3-yl-7-(trifluoromethyl)-3,4-dihydro-2H-1,4-benzoxazine-6-carboxamide hydrochloride]: the IC50 is 82 nM.

`COCC(O)CCN1C(=O)C(C)(C)Oc2cc(C(F)(F)F)c(C(=O)N(C(C)C)C3CCCNC3)cc21` (centres unmarked) [Example 251]: the IC50 is 23.8 nM. Turning to `CCC(=O)NCCN1C(=O)C(C)(c2cccc(OS(C)(=O)=O)c2)Oc2cc(C(F)(F)F)c(C(=O)N(C(C)C)C3CCCNC3)cc21` (centres unmarked) [Example 229], the IC50 came to 0.3 nM. With `CCOC(=O)COCC1(C)Oc2cc(C(F)(F)F)c(C(=O)N(C(C)C)C3CCCNC3)cc2N(CCCCOC)C1=O` (centres unmarked) [Example 216] the figure was 1.1 nM; with `COCCCN1C(=O)[C@@H](C)Oc2cc(C)c(C(=O)N(C(C)C)[C@@H]3CCCNC3)cc21` [Example 18], 11 nM; with `CCC(=O)NCCN1C(=O)C(C)(C)Oc2cc(C(F)(F)F)c(C(=O)N(C(C)C)C3CNCCC3c3cccc(-c4ccccc4)c3)cc21` (centres unmarked) [Example 238], 39 nM. Next, `COCCCCN1C(=O)C(C)(C)Oc2cc(C#N)c(C(=O)N(C(C)C)[C@@H]3CCCNC3)cc21` [Example 162]: 4 nM; `CCC(=O)NCCN1C(=O)C(C)(C)c2cc(Cl)c(C(=O)N(C(C)C)[C@@H]3CCCNC3)cc21` [Example 255, 5-Chloro-N-isopropyl-3,3-dimethyl-2-oxo-N-[(3R)-piperidin-3-yl]-1-[2-(propionylamino)ethyl]-indoline-6-carboxamide hydrochloride]: 20 nM. With `COC(=O)NCCN1C(=O)[C@](C)(c2cc(F)cc(F)c2)Oc2cc(Cl)c(C(=O)N(C(C)C)[C@@H]3CCCNC3)cc21` [Example 30] the figure was 0.8 nM. As to `COCCCCN1C(=O)C2(CCOCC2)Oc2cc(C)c(C(=O)N(C(C)C)[C@@H]3CCCNC3)cc21` [Example 48], the IC50 was 8.4 nM. Next, `COCCCCN1C(=O)C(C)(COCCOC)Oc2cc(C(F)(F)F)c(C(=O)N(C(C)C)C3CCCNC3)cc21` (centres unmarked) [Example 212]: 1.7 nM; `COCCCCN1C(=O)C(C)(CO)Oc2cc(C(F)(F)F)c(C(=O)N(C(C)C)C3CCCNC3)cc21` (centres unmarked) [Example 217]: 1.8 nM; `COCCCCN1C(=O)[C@@H](C)Oc2cc(C(F)(F)F)c(C(=O)N(C(C)C)[C@@H]3CCCNC3)cc21` [Example 66]: 0.7 nM. Next, `COCCCCN1C(=O)C(C2CCOCC2)Oc2cc(C(F)(F)F)c(C(=O)N(C(C)C)C3CCCNC3)cc21` (centres unmarked) [Example 205]: 17.4 nM; `COC(=O)NCCN1C(=O)C(C)(COc2ccccc2)Oc2cc(C(F)(F)F)c(C(=O)N(C(C)C)C3CCCNC3)cc21` (centres unmarked) [Example 209]: 2 nM. For the compound `CCC(=O)NCCN1C(=O)C(C)(c2cccc(C#N)c2)Oc2cc(C(F)(F)F)c(C(=O)N(C(C)C)C3CCCNC3)cc21` (centres unmarked) [Example 224], the IC50 came to 0.6 nM.

For `COC(=O)NCCN1C(=O)[C@](C)(c2cc(F)cc(F)c2)Oc2cc(Br)c(C(=O)N(C(C)C)[C@@H]3CCCNC3)cc21` [Example 36], the IC50 was 0.2 nM. Consider `CCc1cc2c(cc1C(=O)N(C(C)C)[C@@H]1CCCNC1)N(CCCCOC)C(=O)C(C)(C)O2` [Example 79], for which the IC50 amounted to 19.2 nM. Next, `COCC(=O)CCN1C(=O)C(C)(C)Oc2cc(C(F)(F)F)c(C(=O)N(C(C)C)C3CCCNC3)cc21` (centres unmarked) [Example 252]: 1.5 nM; `COCCCN1C(=O)C(C)(C)Oc2cc(Br)c(C(=O)N(C(C)C)[C@@H]3CCCNC3)cc21` [Example 1, 7-Bromo-N-isopropyl-4-(3-methoxypropyl)-2,2-dimethyl-3-oxo-N-[(3R)-piperidin-3-yl]-3,4-dihydro-2H-1,4-benzoxazine-6-carboxamide hydrochloride]: 0.7 nM; `CCC(=O)NCCN1C(=O)C(C)(C)Oc2cc(C(F)(F)F)c(C(=O)N(C3CCC3)[C@@H]3CCCNC3)cc21` [Example 202]: 1.3 nM. With `CCC(=O)NCCN1C(=O)C(C)(C)Oc2cc(C(F)(F)F)c(C(=O)N(CC)C3CNCCC3c3ccccc3)cc21` (centres unmarked) [Example 243] the figure was 2.2 nM; with `COCCCCN1C(=O)C(C)(C)c2cc(Cl)c(C(=O)N(C(C)C)[C@@H]3CCCNC3)cc21` [Example 254, 5-Chloro-3,3-dimethyl-N-isopropyl-1-(4-methoxybutyl)-2-oxo-N-[(3R)-piperidin-3-yl] indoline-6-carboxamide hydrochloride], 14 nM; with `COC(=O)NCCN1C(=O)C(C)(COc2cccc(OC)c2)Oc2cc(C(F)(F)F)c(C(=O)N(C(C)C)C3CCCNC3)cc21` (centres unmarked) [Example 210], 1.2 nM. Next, `CCc1cc2c(cc1C(=O)N(C(C)C)[C@@H]1CCCNC1)N(CCNC(=O)OC)C(=O)C(C)(C)O2` [Example 80]: 4.6 nM.

As a reminder, the IC50 is the midpoint of a concentration-inhibition curve.
